Laboratory results: ChEMBL document CHEMBL5053536, “Discovery of Quinazoline-2,4(1H,3H)-dione Derivatives Containing 3-Substituted Piperizines as Potent PARP-1/2 Inhibitors─Design, Synthesis, In Vivo Antitumor Activity, and X-ray Crystal Structure Analysis” (J Med Chem, 2021)
Activity calls are given as the source filed them. The rule behind the calls is not given here.

Key:
[1] = molecular target: T1, Poly [ADP-ribose] polymerase 2 (Homo sapiens, UniProt Q9UGN5); assay: Inhibition of recombinant human PARP2 using NAD+ as substrate incubated for 1 hr by ELISA
T1 sequence (Q9UGN5 whole entry): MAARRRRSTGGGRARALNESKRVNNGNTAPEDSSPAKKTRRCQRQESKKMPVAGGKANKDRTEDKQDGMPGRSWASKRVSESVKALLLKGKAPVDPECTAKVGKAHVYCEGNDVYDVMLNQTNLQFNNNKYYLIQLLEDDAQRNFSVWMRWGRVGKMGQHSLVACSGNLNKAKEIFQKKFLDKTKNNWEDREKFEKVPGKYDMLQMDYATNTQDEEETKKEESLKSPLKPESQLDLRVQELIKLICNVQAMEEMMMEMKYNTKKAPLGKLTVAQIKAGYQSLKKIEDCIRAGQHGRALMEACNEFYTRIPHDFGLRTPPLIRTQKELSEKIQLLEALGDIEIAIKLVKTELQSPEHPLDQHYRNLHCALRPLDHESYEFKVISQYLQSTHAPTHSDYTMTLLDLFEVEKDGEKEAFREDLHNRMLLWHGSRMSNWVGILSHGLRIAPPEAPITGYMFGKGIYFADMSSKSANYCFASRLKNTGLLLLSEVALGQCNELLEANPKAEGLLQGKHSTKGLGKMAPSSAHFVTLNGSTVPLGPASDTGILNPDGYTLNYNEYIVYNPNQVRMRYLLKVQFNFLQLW

T98G [2] = assay: Inhibition of PARP1/2-mediated DNA repair in human T98G cells assessed as increase in […] expression at 1 to 10 uM after 24 hrs in absence of TMZ by Western blot analysis; format: cell-based; conditions: dose 1-10 µM
U-251 [3] = assay: Inhibition of PARP1/2-mediated DNA repair in human U-251 cells assessed as increase in […] expression at 1 to 10 uM after 24 hrs in presence of TMZ by Western blot analysis; format: cell-based; conditions: dose 1-10 µM
T98G [4] = assay: Inhibition of PARP1/2-mediated DNA repair in human T98G cells assessed as reduction in PAR formation at 1 to 10 uM after 24 hrs in presence of TMZ by Western blot analysis; format: cell-based; conditions: dose 1-10 µM
U-87 MG [5] = assay: Cytotoxicity against human U87MG cells assessed as reduction in cell viability at 5 to 10 uM incubated for 72 hrs in presence of TMZ by MTT assay; format: functional, cell-based; conditions: U-87MG ATCC, dose 5-10 µM
U-251 [6] = assay: Cytotoxicity against human U251 cells assessed as reduction in cell viability at 5 to 10 uM incubated for 72 hrs in presence of TMZ by MTT assay; format: functional, cell-based; conditions: dose 5-10 µM
T98G [7] = assay: Cytotoxicity against human T98G cells assessed as reduction in cell viability at 5 to 10 uM incubated for 72 hrs in presence of TMZ by MTT assay; format: functional, cell-based; conditions: dose 5-10 µM
[8] = molecular target: T1, Poly [ADP-ribose] polymerase 2; assay: Binding affinity to recombinant human PARP2 assessed as dissociation constant by SPR assay
[9] = molecular target: Poly [ADP-ribose] polymerase 1 (Homo sapiens, UniProt P09874); assay: Binding affinity to recombinant human PARP1 assessed as dissociation half life by SPR assay
Sequence of Poly [ADP-ribose] polymerase 1 (P09874 whole entry): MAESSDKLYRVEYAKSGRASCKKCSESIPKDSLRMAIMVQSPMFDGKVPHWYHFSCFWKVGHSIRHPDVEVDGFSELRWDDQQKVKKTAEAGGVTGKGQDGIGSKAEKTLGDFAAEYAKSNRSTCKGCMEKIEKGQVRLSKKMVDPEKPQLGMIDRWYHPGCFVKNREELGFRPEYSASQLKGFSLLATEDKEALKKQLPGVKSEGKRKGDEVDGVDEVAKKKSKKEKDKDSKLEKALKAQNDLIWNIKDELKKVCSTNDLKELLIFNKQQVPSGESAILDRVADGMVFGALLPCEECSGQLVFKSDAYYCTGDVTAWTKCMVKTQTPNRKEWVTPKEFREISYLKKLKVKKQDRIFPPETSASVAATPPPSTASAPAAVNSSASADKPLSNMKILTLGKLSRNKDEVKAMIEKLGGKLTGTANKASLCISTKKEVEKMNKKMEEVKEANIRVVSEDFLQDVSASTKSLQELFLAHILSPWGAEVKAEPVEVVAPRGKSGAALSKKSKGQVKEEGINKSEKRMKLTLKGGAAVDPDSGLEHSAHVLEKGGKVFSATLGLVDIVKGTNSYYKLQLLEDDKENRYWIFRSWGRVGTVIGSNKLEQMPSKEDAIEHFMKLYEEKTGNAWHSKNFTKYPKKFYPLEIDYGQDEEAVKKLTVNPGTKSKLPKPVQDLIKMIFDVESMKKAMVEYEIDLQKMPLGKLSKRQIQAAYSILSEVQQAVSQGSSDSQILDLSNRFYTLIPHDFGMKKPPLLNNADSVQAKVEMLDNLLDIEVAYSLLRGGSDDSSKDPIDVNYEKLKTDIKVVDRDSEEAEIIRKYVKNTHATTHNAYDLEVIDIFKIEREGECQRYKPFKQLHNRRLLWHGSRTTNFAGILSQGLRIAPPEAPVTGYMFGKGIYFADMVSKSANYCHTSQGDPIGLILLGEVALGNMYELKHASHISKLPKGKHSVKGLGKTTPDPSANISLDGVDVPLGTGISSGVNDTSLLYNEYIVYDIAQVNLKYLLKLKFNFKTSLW

[10] = Half life in BALB/c mouse at 25 mg/kg, po measured upto 24 hrs by LC-MS/MS analysis; format: ADME, organism-based; conditions: in vivo
[11] = Half life in Beagle dog at 20 mg/kg, po measured upto 24 hrs by LC-MS/MS analysis; format: ADME, organism-based, Canis lupus familiaris; conditions: in vivo
[12] = Half life in Beagle dog at 0.4 mg/kg, iv measured upto 24 hrs by LC-MS/MS analysis; format: ADME, organism-based, Canis lupus familiaris; conditions: in vivo
[13] = Tmax in Sprague-Dawley rat at 20 mg/kg, po measured upto 24 hrs by LC-MS/MS analysis; format: ADME, organism-based; conditions: in vivo
[14] = Cmax in BALB/c mouse at 25 mg/kg, po measured upto 24 hrs by LC-MS/MS analysis; format: ADME, organism-based; set-up: time < 24 hrs, dose 25 mg/kg, route po; conditions: in vivo
[15] = Cmax in Beagle dog at 20 mg/kg, po measured upto 24 hrs by LC-MS/MS analysis; format: ADME, organism-based, Canis lupus familiaris; set-up: time < 24 hrs, dose 20 mg/kg, route po; conditions: in vivo
[16] = Cmax in Beagle dog at 0.4 mg/kg, iv measured upto 24 hrs by LC-MS/MS analysis; format: ADME, organism-based, Canis lupus familiaris; set-up: time < 24 hrs, dose 0.4 mg/kg, route iv; conditions: in vivo
[17] = AUC(0 to t) in BALB/c mouse at 25 mg/kg, po measured upto 24 hrs by LC-MS/MS analysis; format: ADME, organism-based; set-up: dose 25 mg/kg, time < 24 hrs, route po; conditions: in vivo
[18] = AUC(0 to t) in Sprague-Dawley rat at 20 mg/kg, po measured upto 24 hrs by LC-MS/MS analysis; format: ADME, organism-based; set-up: time < 24 hrs, dose 20 mg/kg, route po; conditions: in vivo
[19] = AUC(0 to infinity) in Sprague-Dawley rat at 20 mg/kg, po measured upto 24 hrs by LC-MS/MS analysis; format: ADME, organism-based; set-up: time < 24 hrs, dose 20 mg/kg, route po; conditions: in vivo
[20] = AUC(0 to infinity) in Beagle dog at 0.4 mg/kg, iv measured upto 24 hrs by LC-MS/MS analysis; format: ADME, organism-based, Canis lupus familiaris; set-up: dose 0.4 mg/kg, time < 24 hrs, route iv; conditions: in vivo
[21] = MRT(0 to infinity) in BALB/c mouse at 25 mg/kg, po measured upto 24 hrs by LC-MS/MS analysis; format: ADME, organism-based; conditions: in vivo
[22] = MRT(0 to infinity) in Beagle dog at 20 mg/kg, po measured upto 24 hrs by LC-MS/MS analysis; format: ADME, organism-based, Canis lupus familiaris; conditions: in vivo
[23] = MRT(0 to infinity) in Beagle dog at 0.4 mg/kg, iv measured upto 24 hrs by LC-MS/MS analysis; format: ADME, organism-based, Canis lupus familiaris; conditions: in vivo
MX1 [24] = assay: Antitumor activity against human MX1 cells xenografted in athymic nu/nu mouse assessed as tumor growth inhibition at 12.5 to 25 mg/kg, po administered once daily for 5 days and measured on day 7 in presence of 50 mg/kg TMZ; format: functional; conditions: dose 12.5-25 mg/kg, time 7 day
MX1 [25] = assay: Antitumor activity against human MX1 cells xenografted in athymic nu/nu mouse assessed as tumor growth inhibition at 12.5 mg/kg, po administered once daily for 5 days and measured on day 17 in presence of 50 mg/kg TMZ; format: functional; conditions: MX1, 408 h, time 17 day, read-out: TGI
MX1 [26] = assay: Antitumor activity against human MX1 cells xenografted in athymic nu/nu mouse assessed as tumor growth inhibition at 25 mg/kg, po administered once daily for 5 days and measured on day 17 in presence of 50 mg/kg TMZ; format: functional; conditions: Mus musculus, MX1, 408 h, time 17 day, read-out: TGI
Mus musculus [27] = assay: Toxicity in athymic nu/nu mouse xenografted with human MX1 cells assessed as reduction in body weight at 12.5 to 25 mg/kg, po administered once daily for 5 days and measured upto day 17; format: organism-based; conditions: in vivo, 408 h, dose 12.5-25 mg/kg, time < 17 day
U-87 MG [28] = assay: Antitumor activity against human U-87MG cells xenografted in BALB/c mouse assessed as reduction in tumor volume at 50 mg/kg, po administered once daily for 5 days and measured on day 8 by MRI scanner (reference value: 202 +/- 120.4 mm3); format: functional, U-87MG ATCC; conditions: time 8 day
U-87 MG [29] = assay: Antitumor activity against human U-87MG cells xenografted in BALB/c mouse assessed as reduction in tumor volume at 25 mg/kg, po administered once daily for 5 days and measured on day 8 in presence of 30 mg/kg TMZ by MRI scanner (reference value: 202 +/- 120.4 mm3); format: functional, U-87MG ATCC; conditions: time 8 day
[30] = Drug concentration in Sprague-Dawley rat brain assessed as brain blood ratio measured upto 24 hrs by LC-MS/MS analysis; format: ADME, organism-based; conditions: read-out: BBR
U-87 MG [31] = assay: Antitumor activity against human U-87MG cells xenografted in BALB/c mouse assessed as reduction in tumor volume at 25 mg/kg, po administered once daily for 5 days and measured on day 32 in presence of 30 mg/kg TMZ by MRI scanner; format: functional, U-87MG ATCC; conditions: time 32 day
U-87 MG [32] = assay: Antitumor activity against human U-87MG cells xenografted in BALB/c mouse assessed as reduction in tumor volume at 50 mg/kg, po administered once daily for 5 days and measured on day 32 in presence of 30 mg/kg TMZ by MRI scanner; format: functional, U-87MG ATCC; conditions: time 32 day
U-87 MG [33] = assay: Antitumor activity against human U-87MG cells xenografted in BALB/c mouse assessed as tumor growth inhibition at 25 mg/kg, po administered once daily for 5 days and measured upto 32 days in presence of 30 mg/kg TMZ by MRI scanner; format: functional, U-87MG ATCC; conditions: 768 h, time <= 32 day, read-out: TGI
Mus musculus [34] = assay: Toxicity in BALB/c mouse xenografted with human U-87MG cells assessed as effect on body weight at 25 mg/kg, po administered once daily for 5 days and measured on day 8 in presence of 30 mg/kg TMZ (reference value: 18.8 +/- 0.7 g); format: organism-based; conditions: in vivo, 192 h, time 8 day

For `CC[C@@H]1CN(C(=O)c2cc(Cn3c(=O)[nH]c(=O)c4ccccc43)ccc2F)CCN1CC`, the IC50 [1] was 23.1 nM, the inhibition (T98G [2]) was “Active” and the inhibition (U-251 [3]) was “Active”. The inhibition (T98G [4]) was “Active”, the Activity (U-87 MG [5]) was “Active” and the Activity (U-251 [6]) was “Active”. The Activity (T98G [7]) was “Active”, the Kd [8] was 51.5 nM and the T1/2 [9] was 1.26 h. The half-life [10] was 0.57 h, the half-life [11] was 3.78 h and the half-life [12] was 1.37 h. It also gave a Tmax [13] of 4.98 min, a Cmax [14] of 399 ng/mL and a Cmax [15] of 6440 ng/mL. It also gave a Cmax [16] of 1250 ng/mL, an AUC(0-t) at 24 h [17] of 555 ng·h/mL and an AUC(0-t) at 24 h [18] of 330 ng·h/mL. It also gave an AUC(0-inf) [19] of 338 ng·h/mL, an AUC(0-inf) [20] of 1430 ng·h/mL and an MRT inf [21] of 1.05 h. The MRT inf [22] was 4.85 h, the MRT inf [23] was 1.43 h and the TGI (MX1 [24]) was over 90%. The inhibition in vivo at 12.5 mg/kg (MX1 [25]) was 71.5%, the inhibition in vivo at 25 mg/kg (MX1 [26]) was 86.8% and the Activity (Mus musculus [27]) was “Non-Toxic”. It also gave an Activity (U-87 MG [28]) of 218.6 mm3, an Activity (U-87 MG [29]) of 0 mm3 and a Kp at 24 h [30] of 0.1. For the same compound, the Activity (U-87 MG [31]) was 10.3 mm3, the Activity (U-87 MG [32]) was 11.9 mm3 and the inhibition in vivo at 25 mg/kg (U-87 MG [33]) was 87.9%. The Activity (Mus musculus [34]) was 18.2 g.
